Our source for the inhibition values is patent US20220289679A1, “HETEROCYCLIC COMPOUND” (Takeda Pharmaceutical Company Limited, priority 2019, published 2022).

The test has as its target T1, human GCS (glucosylceramide synthase) (Homo sapiens, UniProt Q16739).
T1 construct: made in house; host or cells: Expi293F cells (transient expression; microsome fraction)
T1 sequence (Q16739 1-394): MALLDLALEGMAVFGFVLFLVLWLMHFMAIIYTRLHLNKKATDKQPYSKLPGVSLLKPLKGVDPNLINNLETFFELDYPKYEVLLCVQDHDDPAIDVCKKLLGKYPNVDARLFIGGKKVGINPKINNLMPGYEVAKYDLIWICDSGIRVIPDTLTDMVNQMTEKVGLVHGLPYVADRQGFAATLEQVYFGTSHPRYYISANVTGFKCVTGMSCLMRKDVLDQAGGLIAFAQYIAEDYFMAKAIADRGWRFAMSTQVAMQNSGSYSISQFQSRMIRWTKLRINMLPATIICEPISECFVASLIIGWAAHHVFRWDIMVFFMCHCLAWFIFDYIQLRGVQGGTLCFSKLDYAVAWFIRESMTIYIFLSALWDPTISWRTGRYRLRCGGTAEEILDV
Description: Glucosylceramide Synthase (GCS) Assay. Format: biochemical. The settings on record: test compound 10 μM; microsome fraction of Expi293F cells expressing human GCS; 1.7 μM UDP-glucose, 3 μM C8 ceramide; room temperature 60 min; C8 glucosylceramide by Rapidfire MS/MS; read-out: GCS enzyme inhibitory rate at 10 μM (%). The essentials: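 Enzyme source was a microsome fraction from Expi293F cells transiently expressing human GCS. Reaction ran 60 min at room temperature in 20 mM Tris pH 7.5 with 1.7 μM UDP-glucose (Km) and 3 μM liposomal C8 ceramide, compound at 10 μM final. C8 glucosylceramide quantified by RapidFire MS/MS; inhibition scaled between enzyme-free and DMSO controls.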
With `CC(C)(C#N)c1ccc(NC(=O)c2cccn(-c3ccccc3OCC(F)(F)F)c2=O)cn1` [Example 88, N-[6-(2-cyanopropan-2-yl)pyridin-3-yl]-2-oxo-1-[2-(2,2,2-trifluoroethoxy)phenyl]-1,2-dihydropyridine-3-carboxamide], the inhibition at 10 µM was determined as 100%.
The result for `COc1ccccc1-n1c(C)ccc(C(=O)Nc2ccc(Oc3ccccc3)cc2)c1=O` [Example 1, 1-(2-methoxyphenyl)-6-methyl-2-oxo-N-(4-phenoxyphenyl)-1,2-dihydropyridine-3-carboxamide] reads 71%; that for `COc1cc(F)ccc1-n1cccc(C(=O)Nc2ccc(OCC(F)(F)F)nc2)c1=O` [Example 5, 1-(4-fluoro-2-methoxyphenyl)-2-oxo-N-[6-(2,2,2-trifluoroethoxy)pyridin-3-yl]-1,2-dihydropyridine-3-carboxamide], 68%.
In the case of `Cc1cc(C(=O)Nc2ccc(C(C)(C)O)cc2)c(=O)n(-c2ccccc2OCC(F)(F)F)n1` [Example 131, N-[4-(2-hydroxypropan-2-yl)phenyl]-6-methyl-3-oxo-2-[2-(2,2,2-trifluoroethoxy)phenyl]-2,3-dihydropyridazine-4-carboxamide], the inhibition at 10 µM is 100%.
The result for `CC(C)(O)c1ccc(NC(=O)c2cccn(-c3ccccc3OCC(F)(F)F)c2=O)cn1` [Example 84, N-[6-(2-hydroxypropan-2-yl)pyridin-3-yl]-2-oxo-1-[2-(2,2,2-trifluoroethoxy)phenyl]-1,2-dihydropyridine-3-carboxamide] reads 98%; that for `O=C(Nc1ccc(C2CCCO2)cc1)c1ccnn(-c2ccccc2OCC(F)F)c1=O` (racemic) [Example 144, rac-2-[2-(2,2-difluoroethoxy)phenyl]-3-oxo-N-[4-(oxolan-2-yl)phenyl]-2,3-dihydropyridazine-4-carboxamide], 100%.
Turning to `Cc1ccc(C(=O)Nc2ccc(C(C)(C)O)cc2)c(=O)n1-c1ccc(F)cc1OCC(F)(F)F` [Example 100, 1-[4-fluoro-2-(2,2,2-trifluoroethoxy)phenyl]-N-[4-(2-hydroxypropan-2-yl)phenyl]-6-methyl-2-oxo-1,2-dihydropyridine-3-carboxamide], the inhibition at 10 µM stood at 70%.
For `Cn1cc(C(=O)Nc2ccc(C(C)(C)C#N)cc2)c(=O)c(-c2ccccc2OCC(F)(F)F)n1` [Example 190, N-[4-(2-cyanopropan-2-yl)phenyl]-2-methyl-5-oxo-6-[2-(2,2,2-trifluoroethoxy)phenyl]-2,5-dihydropyridazine-4-carboxamide], the inhibition at 10 µM was 100%.
The figure for `Cc1cc(C(=O)Nc2c(F)cc(C(C)(C)O)cc2F)c(=O)n(-c2ccccc2OCC(F)F)n1` [Example 150, 2-[2-(2,2-difluoroethoxy)phenyl]-N-[2,6-difluoro-4-(2-hydroxypropan-2-yl)phenyl]-6-methyl-3-oxo-2,3-dihydropyridazine-4-carboxamide] is 94%; for `O=C(Nc1ccc(OCC(F)(F)F)nc1)c1cccn(-c2ccc(F)cc2OCC(F)F)c1=O` [Example 101, 1-[2-(2,2-difluoroethoxy)-4-fluorophenyl]-2-oxo-N-[6-(2,2,2-trifluoroethoxy)pyridin-3-yl]-1,2-dihydropyridine-3-carboxamide] it is 99%.
The result for `CC(C)(O)c1ccc(NC(=O)c2cccn(-c3cc(F)c(F)cc3OCC(F)(F)F)c2=O)cc1` [Example 108, 1-[4,5-difluoro-2-(2,2,2-trifluoroethoxy)phenyl]-N-[4-(2-hydroxypropan-2-yl)phenyl]-2-oxo-1,2-dihydropyridine-3-carboxamide] reads 95%; that for `CC(C)(O)Cc1ccc(NC(=O)c2cccn(-c3ccc(F)cc3OCC(F)(F)F)c2=O)cc1` [Example 61, 1-[4-fluoro-2-(2,2,2-trifluoroethoxy)phenyl]-N-[4-(2-hydroxy-2-methylpropyl)phenyl]-2-oxo-1,2-dihydropyridine-3-carboxamide], 95%; that for `CC(C)(O)c1ccc(NC(=O)c2cc(C(C)(C)O)nn(-c3ccccc3OCC(F)(F)F)c2=O)cc1` [Example 202, 6-(2-hydroxypropan-2-yl)-N-[4-(2-hydroxypropan-2-yl)phenyl]-3-oxo-2-[2-(2,2,2-trifluoroethoxy)phenyl]-2,3-dihydropyridazine-4-carboxamide], 99%.
The result for `O=C(Nc1ccc(OCC(F)(F)F)nc1)c1cccn(-c2ccc(F)cc2OCC(F)(F)F)c1=O` [Example 26, 1-[4-fluoro-2-(2,2,2-trifluoroethoxy)phenyl]-2-oxo-N-[6-(2,2,2-trifluoroethoxy)pyridin-3-yl]-1,2-dihydropyridine-3-carboxamide] reads 100%; that for `O=C(Nc1cnc(C(F)(F)F)cn1)c1cccn(-c2ccc(F)cc2OCC(F)(F)F)c1=O` [Example 37, 1-[4-fluoro-2-(2,2,2-trifluoroethoxy)phenyl]-2-oxo-N-[5-(trifluoromethyl)pyrazin-2-yl]-1,2-dihydropyridine-3-carboxamide], 83%.
Regarding `O=C(Nc1ccc(C(O)C2CC2)nc1)c1cccn(-c2ccc(F)cc2OCC(F)(F)F)c1=O` (racemic) [Example 75, rac-N-{6-[cyclopropyl(hydroxy)methyl]pyridin-3-yl}-1-[4-fluoro-2-(2,2,2-trifluoroethoxy)phenyl]-2-oxo-1,2-dihydropyridine-3-carboxamide], the inhibition at 10 µM came to 96%.
The figure for `CC(C)(O)c1ccc(NC(=O)c2cn(C(F)F)nc(-c3ccccc3OCC(F)F)c2=O)cc1` [Example 161, 6-[2-(2,2-difluoroethoxy)phenyl]-2-(difluoromethyl)-N-[4-(2-hydroxypropan-2-yl)phenyl]-5-oxo-2,5-dihydropyridazine-4-carboxamide] is 100%; for `O=C(Nc1ccc(C(O)(C(F)F)C(F)F)nc1)c1cn(C2COC2)nc(-c2ccccc2OCC(F)F)c1=O` [Example 187, 6-[2-(2,2-difluoroethoxy)phenyl]-2-(oxetan-3-yl)-5-oxo-N-[6-(1,1,3,3-tetrafluoro-2-hydroxypropan-2-yl)pyridin-3-yl]-2,5-dihydropyridazine-4-carboxamide] it is 100%; for `O=C(Nc1ccc(C(O)(C(F)F)C(F)F)cc1)c1cccn(-c2ccccc2OCC(F)(F)F)c1=O` [Example 77, 2-oxo-N-[4-(1,1,3,3-tetrafluoro-2-hydroxypropan-2-yl)phenyl]-1-[2-(2,2,2-trifluoroethoxy)phenyl]-1,2-dihydropyridine-3-carboxamide] it is 100%.
Take `O=C(Nc1ccc(C(O)(C(F)F)C(F)F)nc1)c1cn(C(F)F)nc(-c2ccccc2OCC(F)F)c1=O` [Example 177, 6-[2-(2,2-difluoroethoxy)phenyl]-2-(difluoromethyl)-5-oxo-N-[6-(1,1,3,3-tetrafluoro-2-hydroxypropan-2-yl)pyridin-3-yl]-2,5-dihydropyridazine-4-carboxamide]: the inhibition at 10 µM stood at 100%.
Take `CC(C)(O)c1cc(C(=O)Nc2ccc(C(C)(C)C#N)cc2)c(=O)n(-c2ccccc2OCC(F)(F)F)n1` [Example 201, N-[4-(2-cyanopropan-2-yl)phenyl]-6-(2-hydroxypropan-2-yl)-3-oxo-2-[2-(2,2,2-trifluoroethoxy)phenyl]-2,3-dihydropyridazine-4-carboxamide]: the inhibition at 10 µM came to 100%.
